In patent US20170050966A1, “INHIBITING THE TRANSIENT RECEPTOR POTENTIAL A1 ION CHANNEL” (HYDRA BIOSCIENCES, INC., priority 2014, published 2017):
Values after ≈ are worked out from the molar mass of the structure shown.

Tests used:
[1] = Solubility in simulated gastrointestinal fluid (SGF); assay type: physicochemical; conditions: simulated gastric fluid, thermodynamic from solid, HCl 0.1N at 25° C.
Description: Solubility was further assessed in simulated gastrointestinal fluid (SGF) (HCl 0.1N at 25° C.). Briefly, compound was agitated for 30 hours and sampled, centrifuged, and analyzed by UPLC.

[2] = Plasma protein binding, equilibrium dialysis; conditions: pooled K2EDTA plasma
Description: With this method, free compound is separated from protein-bound compound by dialysis across a semi-permeable membrane.
The protein binding was tested at a concentration of 1 μM. Pooled human, cynomolgus monkey, dog, and rat K2EDTA plasma was thawed and centrifuged at 2000×g for 10 minutes at 4° C. to remove particulates; any lipid on the top of the supernatant was also removed by aspiration. The plasma was warmed to 37° C. for 10 minutes before use. Test compounds were spiked into 2 ml plasma in a polypropylene plate to a final concentration of 1 μM. Triplicate 400 μl aliquots of spiked plasma were transferred into the Thermo RED dialysis units and dialyzed against 600 μl of PBS buffer. […] After 6 hours dialysis, triplicate 50 μl aliquots were removed from the RED plate, matrix-matched with either PBS buffer or blank plasma, as appropriate, and quenched with 4 volumes of ACN containing an internal standard. The extracted samples were then centrifuged at 2000×g for 5 minutes at 4° C. The supernatant (50 μl) was removed and diluted with 100 μl water prior to LC/MS/MS bioanalysis.

[3] = Oral PK and bioavailability of micronized Compound 2 suspension; assay type: in vivo, dogs (beagles); conditions: fasted dogs
Description: Additional studies were conducted with micronized Compound 2 in rat, dogs (beagles), and cynomolgus monkeys. Animals received a 10 mg/kg dose oral dose of compound formulated as a suspension in 0.5% methyl cellulose in water for injection at a target concentration of 1 mg/mL, and administered a dose volume of 10 mL/kg by oral gavage in rats or fasted dogs and via oral delivery in fasted cynomolgus monkeys. The % F for the rats in these studies was 85%, 36% for the dogs, and 19% for the monkeys. FIG. 11 depicts the pharmacokinetic profile for these species.
Three studies were conducted in dogs (beagles). In one study, three fasted dogs were administered 10 mg/kg of a suspension of micronized Compound 2 by gavage. Blood samples were collected from these dogs before dosing and at 0.25, 0.50, 1, 2, 4, 6, 8, 12, and 24 hours post-administration. Blood samples were analyzed to determine plasma levels of Compound 2 by LC/MS/MS. In subsequent studies, pharmacokinetic (PK) parameters were determined following a single oral dose of suspensions of micronized Compound 2 (recrystallized from ethanol) administered to fasted dogs at dose levels of 10, 100, 300, 600, or 1000 mg/kg. Blood samples were taken before dosing and at 0.5, 1, 2, 4, 8, 12, 24 and 48 hours post-dosing and analyzed to determine plasma levels of Compound 2.

[4] = system: allergic sheep challenged with Ascaris suum; assay: Sheep model of allergic bronchoconstriction and airway hyperresponsiveness; assay type: in vivo
Description: Compound 2 was also tested in the sheep model of allergic bronchoconstriction and airway hyperresponsiveness according to the methods disclosed in Abraham, W. M Palm Pharmacol Ther (2008) 21:743-754. Allergic sheep challenged with Ascaris suum show a substantial, biphasic increase in pulmonary resistance (RL). The first four hours are considered the early asthmatic response (EAR); the next four hours (hours 4-8) are considered to be the late asthmatic response (LAR). To assess airway responsiveness (AHR), the cumulative carbachol dose in breath units that increased pulmonary resistance 400% over the post-buffer value (PC 400) was calculated from the dose response curve. One breath unit was defined as one breath of a 1% w/v carbachol solution. A pre-challenge PC 400 was obtained 1-3 days before the start of dosing.
Compound 2 was formulated as a micronized powder suspended in 0.5% methylcellulose at a concentration of 6 mg/ml and administered orally at a dose of 30 mg/kg once a day for 4 days, at the same approximate time each day. Sheep were given 30 mg/kg Compound 2 orally daily four days. Two hours after the final dose of Compound 2, the sheep were subjected to an allergen (Ascaris) challenge. Each sheep was restrained in a prone position and its head was immobilized prior to topical anesthesia of the nasal passages. A balloon catheter was advanced through one nostril into the lower esophagus. Each sheep was intubated with a cuffed endotracheal tube through the other nostril. Tracheal and pleural pressures were determined using the endotracheal tube and balloon catheter, respectively. The trans-pulmonary pressure, i.e., the difference between the tracheal and pleural pressures, was measured using a differential pressure transducer catheter system. RL was determined by connecting the distal end of the endotracheal tube to a pneumotachograph. Data were collected from five to ten breaths to a computer and used to calculate RL. Data from the same sheep challenged with Ascaris prior to the initiation of Compound 2 treatment were used to establish baseline values. Monitoring conditions for the control and drug trials were identical.
On the day of challenge and two hours after the final dose of Compound 2, an aerosol of Ascaris suum (82,000 protein nitrogen units/mL) was generated using a nebulizer and delivered to the sheep using a Harvard respirator. RL was determined one hour prior to challenge, immediately following Ascaris challenge, and hourly thereafter for eight hours. Challenge to 4 hours is considered the EAR while 4 to 8 hours is considered the LAR.
Sheep were also challenged with aerosolized carbachol, a cholinergic agonist that has a negative impact on AHR. […]

[5] = Storage stability of anhydrous solid crystalline form (XRPD); assay type: physicochemical; conditions: Form B, ambient conditions for three months
Description: After storage of this solid crystalline form at ambient conditions for three months, the sample was subjected to XRPD analysis again.

CYP2C9 = CYP2C9 (Homo sapiens, UniProt P11712); assay: in vitro; conditions: probe Diclofenac
[6] = 30 mg/kg orally once a day for 4 days

Sequence of CYP2C9 (P11712 whole entry): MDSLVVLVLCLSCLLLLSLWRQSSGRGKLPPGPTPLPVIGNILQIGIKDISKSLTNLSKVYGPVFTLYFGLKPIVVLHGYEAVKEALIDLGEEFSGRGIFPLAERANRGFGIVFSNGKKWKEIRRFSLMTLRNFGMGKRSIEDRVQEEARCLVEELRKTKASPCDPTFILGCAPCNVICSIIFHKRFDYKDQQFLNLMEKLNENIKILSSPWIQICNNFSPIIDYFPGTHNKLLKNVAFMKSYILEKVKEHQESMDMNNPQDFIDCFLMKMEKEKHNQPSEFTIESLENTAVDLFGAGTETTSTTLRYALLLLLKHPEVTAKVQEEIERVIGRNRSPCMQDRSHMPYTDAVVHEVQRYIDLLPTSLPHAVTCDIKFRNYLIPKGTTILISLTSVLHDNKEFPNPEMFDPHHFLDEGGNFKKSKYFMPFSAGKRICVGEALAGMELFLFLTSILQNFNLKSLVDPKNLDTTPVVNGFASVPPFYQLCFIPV

solubility at 30 h [1]: 1050 µg/mL (≈ 1930 µM)
fraction unbound at 6 h, 1 μM ([2]; beagle, dog): 0.055
fraction unbound at 6 h, 1 μM ([2]; cynomolgus monkey): 0.02
bioavailability ([3]; beagle, dog, plasma, 10 mg/kg oral, micronized suspension): 36%
Exposures on an AUC and Cmax basis versus dose ([3]; single oral dose 10 to 1000 mg/kg): increased with doses up to 600 mg/kg
XRPD pattern after storage [5]: matches the original indexed pattern
inhibition at 10 µM (CYP2C9): 22%
Structure (SMILES): C[C@@H](C(=O)Nc1ccnc(-c2cnc(N3CCC[C@H]3C(F)(F)F)nc2)n1)n1cnc2c1c(=O)n(C)c(=O)n2C [Compound 2, (S)-2-(1,3-dimethyl-2,6-dioxo-2,3-dihydro-1H-purin-7(6H)-yl)-N-(2′-((S)-2-(trifluoromethyl)pyrrolidin-1-yl)-[2,5′-bipyrimidin]-4-yl)propanamide]
peak early airway responses [4, 6]: did not affect the peak early airway responses
protection of late airway responses [4, 6]: 85%
airway hyperresponsiveness (PC400) ([4]; 30 mg/kg orally, carbachol challenge 24 hours after final dose): reduced the airway hyperresponsiveness to levels similar to those observed in sheep that were not challenged with Ascaris suum
average LAR (increase in pulmonary resistance) ([4]; treatment trial, 30 mg/kg orally once a day for 4 days): 19±2.3%
